What all share (assay type): cell-based, human
One experiment relates to Reovirus dsRNA, Reo S4. Nature of the experiment: IL-6 production in BEAS-2B cells in the presence of Reovirus dsRNA Reo S4. The protocol: (§1) IL-6 production was quantified by ELISA using the OptEIA™ kit (BD Biosciences). A typical assay used 2×10^4 BEAS-2B cells/well grown for 24 h in flat bottom 96-well plates. Poly(I:C) was added to a final concentration of 0.13 μg/ml. Antimicrobial peptides were added to the cell culture medium to a final concentration of 3 μM unless specified otherwise. All ELISA results shown were performed in triplicate and in at least three independent experiments.
Herein, we analyzed the LL-37 orthologs from Rhesus monkeys, pig, sheep, guinea pigs, rabbit, as well as mouse (FIG. 14A). All peptides were chemically synthesized and assayed for the induction of inflammatory cytokine IL-6 in the presence of the double-stranded RNA mimic, poly(I:C) or the Reovirus dsRNA, Reo S4 (FIGS. 14B and 14C). […] Importantly, all LL-37 orthologs tested had the ability to reduce IL-6 production in response to LPS (FIG. 14E).

A further experiment has as its system Toll-like receptor 9. The experiment in a line: IL-6 production in BEAS-2B cells in the presence of ssDNA ligand ODN.
The subject of another experiment is TLR3 signaling. Nature of the experiment: IL-6 production (ELISA) in BEAS-2B cells induced with poly(I:C). Conditions: BEAS-2B cells. The protocol:
as §1
To better define how residues in LL-37 contribute to function, several variants derived from LL-37 were tested for: 1) repression of TLR4 signaling by LPS, 2) enhancement of TLR3 signaling by poly(I:C), and 3) binding to LL-37. Signaling by TLR3 and TLR4 were monitored using ELISA to detect IL-6 secreted into the medium of BEAS-2B cells.
Background: In an ELISA, binding on a coated surface is turned into a signal by an enzyme label.

Take “PAMP-37: LL-37 ortholog from pig, SEQ ID NO: 22 (GLLSRLRDFLSDRGRRLGEKIERIGQKIKDLSEFFQS; (1)..(37) Pig PMAP-37; listed as Sus scrofa)”: in the experiment with Reovirus dsRNA, Reo S4, the “Enhancement of IL-6 production / signaling by Reo S4, in words” value was “failed to enhance signaling”. Also, the “Induction of signaling by the ssDNA ligand for Toll-like receptor 9, in words” value with Toll-like receptor 9 was “failed to induce signaling”. Besides, in the experiment with TLR3 signaling, the “Enhancement of TLR3 signaling / poly(I:C)-induced IL-6, in words” value is “failed to enhance signaling”.

Take “CAP-18: LL-37 ortholog from rabbit, SEQ ID NO: 24 (GLRKRLRKFRNKIKEKLKKIGQKIQGLLPKLAPRTDY; (1)..(37) Rabbit CAP-18)”: in the experiment on Reovirus dsRNA, Reo S4, the “Enhancement of IL-6 production / signaling by Reo S4, in words” value is reported as “failed to enhance signaling”. For the same substance, the “Induction of signaling by the ssDNA ligand for Toll-like receptor 9, in words” value in the experiment on Toll-like receptor 9 was “failed to induce signaling”. Besides, in the experiment on TLR3 signaling, the “Enhancement of TLR3 signaling / poly(I:C)-induced IL-6, in words” value is reported as “failed to enhance signaling”.

(Values after patent publication US10138282B2, “Peptide antagonist of LL-37” (INDIANA UNIVERSITY RESEARCH AND TECHNOLOGY CORPORATION, priority 2014, dated 2018).)
